# Reference: patent publication US20130123481A1, “MODIFIED NUCLEOSIDES, NUCLEOTIDES, AND NUCLEIC ACIDS, AND USES THEREOF” (MODERNA THERAPEUTICS, priority 2011, published 2013)
# System: peripheral blood mononuclear cells (PBMC), interferon-alpha (IFN-α)
# Experiment: not given
# Type: cell-based, human
# Conditions: Table 47 naturally occurring; IFN-alpha, background about 70 pg/ml
# From the text: The supernatant was harvested and stored frozen until analyzed by ELISA to determine the G-CSF protein expression, and the induction of the cytokines interferon-alpha (IFN-α) and tumor necrosis factor alpha (TNF-α).
row,Molecule,Cytokines (G-CSF; PBMC)
1,Nc1nc(=O)n([C@@H]2O[C@H](CO)[C@@H](O)[C@H]2O)cc1C=O [5-formylcytidine (f^5C)],+ (“+” means greater than 100 pg/ml IFN-alpha)

# System: HeLa cells
# Experiment: In vitro Screening in HeLa Cells - luciferase (RLU)
# Type: cell-based, human
# Parameters: key to Protein (Luc; HeLa): the protein production of HeLa is judged by “+,” “+/−” and “−”; the protein production of HeLa is judged by “+,” “+/−” and “−”; the protein production of HeLa is judged by “+,” “+/−” and “−”
# Conditions: Table 47 naturally occurring; *** = production seen in cell free translations
# Method: The 2′Fluoro-modified mRNA were then transfected into HeLa cells to assess protein production in a cell context and the same mRNA were also assessed in a cell-free rabbit reticulocyte system. A control of unmodified luciferase (natural luciferase) was used for both transcription experiments, a control of untreated and mock transfected (Lipofectamine 2000 alone) were also analyzed for the HeLa transfection and a control of no RNA was analyzed for the rabbit reticulysates.
# For the HeLa transfection experiments, the day before transfection, 20,000 HeLa cells (ATCC no. CCL-2; Manassas, Va.) were harvested by treatment with Trypsin-EDTA solution (LifeTechnologies, Grand Island, N.Y.) and seeded in a total volume of 100 ul EMEM medium (supplemented with 10% FCS and 1× Glutamax) per well in a 96-well cell culture plate (Corning, Manassas, Va.). The cells were grown at […] in 5% CO2 atmosphere overnight. […] Lipofectamine 2000 (LifeTechnologies, Grand Island, N.Y.) was used as transfection reagent and 0.2 ul were diluted in 10 ul final volume of OPTI-MEM. After […] of incubation at room temperature, both solutions were combined and incubated an additional 15 minute at room temperature. Then the 20 ul combined solution was added to the 100 ul cell culture medium containing the HeLa cells and incubated at room temperature. After 18 to 22 hours of incubation cells expressing luciferase were lysed with 100 ul of Passive Lysis Buffer (Promega, Madison, Wis.) according to manufacturer instructions. Aliquots of the lysates were transferred to white opaque polystyrene 96-well plates (Corning, Manassas, Va.) and combined with 100 ul complete luciferase assay solution (Promega, Madison, Wis.). The lysate volumes were adjusted or diluted until no more than 2 mio relative light units (RLU) per well were detected for the strongest signal producing samples and the RLUs for each chemistry tested are shown in Table 42. The plate reader was a BioTek Synergy H1 (BioTek, Winooski, Vt.). The background signal of the plates without reagent was about 200 relative light units per well.
# To evaluate using of 2′fluoro-modified mRNA in combination with other modification a series of mRNA were transcribed using either wild-type T7 polymerase (non-fluoro-containing compounds) or using mutant T7 polymerases (fluyoro-containing compounds) as described in Example 86. All modified mRNA were tested by in vitro transfection in HeLa cells.
# After 18 to 22 hours of incubation cells expressing luciferase were lysed with 100 ul of Passive Lysis Buffer (Promega, Madison, Wis.) according to manufacturer instructions. Aliquots of the lysates were transferred to white opaque polystyrene 96-well plates (Corning, Manassas, Va.) and combined with 100 ul complete luciferase assay solution (Promega, Madison, Wis.). The lysate volumes were adjusted or diluted until no more than 2 mio relative light units (RLU) per well were detected for the strongest signal producing samples and the RLUs for each chemistry tested are shown in Table 44. The plate reader was a BioTek Synergy H1 (BioTek, Winooski, Vt.). The background signal of the plates without reagent was about 200 relative light units per well.
row,Molecule,Protein (Luc; HeLa)
1,Nc1nc(=O)n([C@@H]2O[C@H](CO)[C@@H](O)[C@H]2O)cc1C=O [5-formylcytidine (f^5C)],−***

# Target: wild-type T7 polymerase (Escherichia phage T7, UniProt P00573)
# Experiment: In Vitro Transcription with Wild-Type T7 Polymerase (transcription and capping yield)
# Conditions: G-CSF mRNA, wild-type T7 polymerase, OD260
# Method: The luciferase and G-CSF modified mRNA were also subjected to an enzymatic capping reaction and each modified mRNA capping reaction was evaluated for yield by spectrophometic measurement (OD260) and correct size assessed using bioanalyzer.
# Sequence of wild-type T7 polymerase (P00573 whole entry): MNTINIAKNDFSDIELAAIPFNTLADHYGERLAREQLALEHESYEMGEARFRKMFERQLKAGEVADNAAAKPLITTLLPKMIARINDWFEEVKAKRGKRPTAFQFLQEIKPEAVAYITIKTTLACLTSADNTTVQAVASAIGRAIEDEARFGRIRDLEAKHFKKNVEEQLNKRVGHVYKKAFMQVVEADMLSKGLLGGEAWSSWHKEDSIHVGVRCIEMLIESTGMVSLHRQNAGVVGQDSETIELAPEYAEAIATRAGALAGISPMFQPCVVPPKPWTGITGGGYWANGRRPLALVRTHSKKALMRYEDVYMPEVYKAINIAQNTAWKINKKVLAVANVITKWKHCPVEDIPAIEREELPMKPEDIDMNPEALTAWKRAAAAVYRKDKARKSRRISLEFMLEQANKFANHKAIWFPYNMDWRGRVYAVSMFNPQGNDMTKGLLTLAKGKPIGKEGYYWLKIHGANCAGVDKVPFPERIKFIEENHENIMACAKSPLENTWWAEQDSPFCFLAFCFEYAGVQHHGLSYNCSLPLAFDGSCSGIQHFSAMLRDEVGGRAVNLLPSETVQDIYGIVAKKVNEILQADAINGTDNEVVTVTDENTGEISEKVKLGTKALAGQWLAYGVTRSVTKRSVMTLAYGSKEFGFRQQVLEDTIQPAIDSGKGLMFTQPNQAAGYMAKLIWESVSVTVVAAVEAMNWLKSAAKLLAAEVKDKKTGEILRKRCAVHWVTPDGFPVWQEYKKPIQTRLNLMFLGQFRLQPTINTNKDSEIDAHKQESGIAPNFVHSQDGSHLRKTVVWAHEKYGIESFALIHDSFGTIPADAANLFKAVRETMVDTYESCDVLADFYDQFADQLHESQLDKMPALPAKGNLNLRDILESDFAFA
row,Molecule,In vitro transcription Yield
1,COC(=O)C=Cc1cn([C@@H]2O[C@H](CO)[C@@H](O)[C@H]2O)c(=O)[nH]c1=O [5 (2 carbomethoxyvinyl) uridine],1.8 mg
2,N-1-methyladenosine [Compound N-1-methyladenosine],0.63 mg

# Same assay, conditions: G-CSF modified mRNA (wild-type T7), enzymatic capping, OD260
row,Molecule,Capping reaction Yield
1,COC(=O)C=Cc1cn([C@@H]2O[C@H](CO)[C@@H](O)[C@H]2O)c(=O)[nH]c1=O [5 (2 carbomethoxyvinyl) uridine],1.28 mg

# Same assay, conditions: Luciferase mRNA, wild-type T7 polymerase, OD260
row,Molecule,In vitro transcription Yield
1,COC(=O)C=Cc1cn([C@@H]2O[C@H](CO)[C@@H](O)[C@H]2O)c(=O)[nH]c1=O [5 (2 carbomethoxyvinyl) uridine],0.89 mg

# Same assay, conditions: Luciferase modified mRNA (wild-type T7), enzymatic capping, OD260
row,Molecule,Capping reaction Yield
1,COC(=O)C=Cc1cn([C@@H]2O[C@H](CO)[C@@H](O)[C@H]2O)c(=O)[nH]c1=O [5 (2 carbomethoxyvinyl) uridine],0.54 mg

# Same assay, conditions: Table 47 naturally occurring; G-CSF mRNA in vitro transcription, Pass/Fail
row,Molecule,IVT (G-CSF)
1,Nc1nc(=O)n([C@@H]2O[C@H](CO)[C@@H](O)[C@H]2O)cc1C=O [5-formylcytidine (f^5C)],Pass

# Same assay, conditions: Table 47 naturally occurring; luciferase mRNA in vitro transcription, Pass/Fail
row,Molecule,IVT (Luc)
1,Nc1nc(=O)n([C@@H]2O[C@H](CO)[C@@H](O)[C@H]2O)cc1C=O [5-formylcytidine (f^5C)],Pass

# Same assay, conditions: Table 48 non-naturally occurring; G-CSF mRNA in vitro transcription, Pass/Fail
row,Molecule,"IVT (G-CSF), first result"
1,"Nc1cnn([C@@H]2O[C@H](CO)[C@@H](O)[C@H]2O)c(=O)n1 [Compound 6-Aza-cytidine, 6-Aza-cytidine]",Fail

# Same assay, conditions: Table 48 non-naturally occurring; luciferase mRNA in vitro transcription, Pass/Fail
row,Molecule,"IVT (Luc), first result"
1,"Nc1cnn([C@@H]2O[C@H](CO)[C@@H](O)[C@H]2O)c(=O)n1 [Compound 6-Aza-cytidine, 6-Aza-cytidine]",Fail

# System: HeLa cells
# Experiment: G-CSF expression in HeLa cells (ELISA)
# Type: cell-based, human
# Parameters: key to Protein (G-CSF; HeLa): the protein production of HeLa is judged by “+,” “+/−” and “−”; the protein production of HeLa is judged by “+,” “+/−” and “−”; the protein production of HeLa is judged by “+,” “+/−” and “−”
# Conditions: Table 47 naturally occurring; *** = production seen in cell free translations
# Method: (§1) To assess the activity of all our different chemical modifications in the context of a second open reading frame, we replicated experiments previously conducted using luciferase mRNA, with human G-CSF mRNA. […] The mutant T7 polymerase was obtained commercially (Durascribe® T7 Transcription kit (Cat. No. DS010925) (Epicentre®, Madison, Wis.).
# (§2) The modified RNA in Tables 45 and 46 were transfected in vitro in HeLa cells or added to rabbit reticulysates (250 ng of modified mRNA) as indicated. […] In Table 45, “NT” means not tested.
row,Molecule,Protein (G-CSF; HeLa)
1,Nc1nc(=O)n([C@@H]2O[C@H](CO)[C@@H](O)[C@H]2O)cc1C=O [5-formylcytidine (f^5C)],−***

# Same assay, conditions: fully modified G-CSF mRNA transfected in HeLa cells, ELISA
row,Molecule,G-CSF protein (pg/ml) HeLa cells
1,"Cn1cnc2c(ncn2[C@@H]2O[C@H](CO)[C@@H](O)[C@H]2O)c1=N [Compound N1-methyl-adenosine, N1-methyl-adenosine]","4,773 pg/ml"
2,"CNc1ncnc2c1ncn2[C@@H]1O[C@H](CO)[C@@H](O)[C@H]1O [Compound N6-methyl-adenosine, N6-methyl-adenosine]","1,591 pg/ml"
3,"Cc1cn([C@@H]2O[C@H](CO)[C@@H](O)[C@H]2O)c(=O)nc1N [Compound 5-methyl-cytidine, 5-methyl-cytidine]","646,591 pg/ml"
4,O=c1[nH]c(=O)n([C@@H]2O[C@H](CO)[C@@H](O)[C@H]2O)cc1Br [5-Bromo-uridine],"186,591 pg/ml"
5,COC(=O)C=Cc1cn([C@@H]2O[C@H](CO)[C@@H](O)[C@H]2O)c(=O)[nH]c1=O [5-(2carbomethoxyvinyl) uridine],"1,364 pg/ml"
6,"Nc1nc(=O)n([C@@H]2O[C@H](CO)[C@@H](O)[C@H]2O)cc1C=O [Compound 5-formyl-cytidine, 5-formyl-cytidine]",0 pg/mL

# System: rabbit reticulysates
# Experiment: G-CSF expression in rabbit reticulysates (ELISA)
# Type: biochemical
# Conditions: 250 ng modified G-CSF mRNA in rabbit reticulysates
# Method: as §1, §2
row,Molecule,G-CSF protein (pg/ml) Rabbit reticulysates cells
1,"Cn1cnc2c(ncn2[C@@H]2O[C@H](CO)[C@@H](O)[C@H]2O)c1=N [Compound N1-methyl-adenosine, N1-methyl-adenosine]",0 pg/mL
2,Luciferase control,0 pg/mL
3,"CNc1ncnc2c1ncn2[C@@H]1O[C@H](CO)[C@@H](O)[C@H]1O [Compound N6-methyl-adenosine, N6-methyl-adenosine]",0 pg/mL
4,"Cc1cn([C@@H]2O[C@H](CO)[C@@H](O)[C@H]2O)c(=O)nc1N [Compound 5-methyl-cytidine, 5-methyl-cytidine]","79,375 pg/ml"
5,O=c1[nH]c(=O)n([C@@H]2O[C@H](CO)[C@@H](O)[C@H]2O)cc1Br [5-Bromo-uridine],"72,000 pg/ml"
6,COC(=O)C=Cc1cn([C@@H]2O[C@H](CO)[C@@H](O)[C@H]2O)c(=O)[nH]c1=O [5-(2carbomethoxyvinyl) uridine],0 pg/mL
7,"Nc1nc(=O)n([C@@H]2O[C@H](CO)[C@@H](O)[C@H]2O)cc1C=O [Compound 5-formyl-cytidine, 5-formyl-cytidine]","24,000 pg/ml"
